Several values for one entry are separate records, joined by “and”; a condition that tells them apart may be missing. Identical values can stand only once. Like-named read-outs stand apart in the source and are kept apart here.
Columns and labels:
[1] = system: Plasmodium cynomolgi; conditions: cited from earlier work
[2] = system: Plasmodium berghei; conditions: cited from earlier work
[3] = system: Plasmodium berghei; assay: Blood schizonticidal (suppressive) test, Rane mouse test, P. berghei; format: in vivo, Plasmodium berghei KBG 173 in ICR/HA Swiss mice; conditions: for Cures (60 days survival) / Suppressive activity (active/inactive) / Toxic: five mice; for Cures (60 days survival) / Extension of survival relative to controls / Suppressive activity (active/inactive) / Toxic: Table III
Source text: Blood Schizonticidal Test (Mouse), University of Miami, Rane (Suppressive)
This system is based on comparisons of responses to test compounds by Plasmodium berghei KBG 173 malaria in mice as expressed in mean survival times and the mean survival times of untreated controls. Thus, compounds noted as active produce increases in the survival times of the treated animals that are significant when compared with the survival times of untreated controls. Since an established disease is less sensitive to treatment than a disease in the early stages of development, treatment is withheld until the parasitemia is relatively high in order to insure a more reliable assay of activity and the selection of appropriate compounds for intensive preclinical studies.
Utilizing young ICR/HA Swiss mice and a standard inoculum of Plasmodium berghei KBG 173, it is possible to produce a uniform disease fatal to 100% of untreated animals within 6 to 8 days with a mean survival time of 6.2 days. Test animals weigh from 18 to 22 grams but weight variations in any given experimental or control group are confined to 2-3 grams. All animals in any given test are approximately of the same age. Animals on test are housed in metal-topped plastic cages, given a standard laboratory diet and water ad libitum.
Test animals receive an intraperitoneal injection of 0.5 ml of 1:100 dilution of heparinized heart's blood with a minimum of 90% parasitized cells (4×10^7 cells), drawn from donor mice infected one week earlier with Plasmodium berghei. The donor stran is maintained by weekly passages in separate groups of mice inoculated with a 0.5 ml of 1:500 dilution of heparinized heart's blood.
Test compounds are administered after dissolution or suspension in peanut oil. A single dose is given subcutaneously 72 hours after the mice are infected with Plasmodium berghei. At this time a 10-15 percent parasitemia has developed; the disease is well established but has not produced sufficient debility to alter the response of the host to toxic effects of the drug on test. Since treatment is withheld for three days to permit the infection to become well established and death occurs in untreated controls within 6-8 days, it is believed that this system presents a candidate compound with the maximum challenge. In order to check factors such as changes in the infectivity of Plasmodium berghei or in the susceptibility of the host or to detect technical errors, a group of infected animals treated with pyrimethamine at dose levels producing definite increases in survival time is included as a positive control in every experiment.
In each experiment test compounds are administered in graded doses. […] However, if an active drug is toxic for the host, its toxicity may become a limiting factor; continued increases in dose levels also increase the toxic effects and may result in the diminution of survival times. Deaths prior to the sixth day, when untreated controls begin to die, are regarded as non-parasitic and become the basis for toxicity evaluations. Treated animals are kept under observation for 60 days. Survivors at the end of this period of time are considered as cured.
An increase of 100% in mean survival time is considered the minimum effective response for a candidate compound. In calculating mean survival time, toxic deaths and 60 day survivors are not included.
The antimalarial activity data acquired by the two test procedures described above are listed in Tables 2 and 3 for the compounds of this invention. In Table 4, the most promising compound of the series, compound 1, is compared directly with primaquine together with some additional test data for compound 1 compared to primaquine. In all the work reported herein primaquine is used in the form of the diphosphate salt. The test data are expressed in the form of the number of cures at a given dose level. […]

[4] = system: Plasmodium cynomolgi; assay: Radical curative (tissue schizonticidal) test, SEATO, P. cynomolgi, rhesus monkey; format: in vivo, Plasmodium cynomolgi (strain B) in Indian rhesus monkeys; conditions: for Molar Primaquine Index CD 100: primaquine CD100 dose / drug CD100 dose, in moles; for Radical curative activity relative to primaquine: in words
Protocol: Radical Curative Test in Rhesus Monkeys, SEATO Medical Research Laboratory, Bangkok, John Brown/Richard Andre
This test is designed to evaluate the tissue schizonticidal (radical curative) activity of test compounds. Well-conditioned Indian rhesus monkeys of either sex weighing 2-4 Kg are utilized. Plasmodium cynomolgi (strain B) sporozoites are prepared by grinding heavily infected Anopheles dirus salivary glands in 1:1 monkey serum-saline vehicle.
Monkeys are infected by I.V. injection of 10^6 freshly isolated P. cynomolgi sporozoites on day 0. A rapidly rising parasitemia develops after a 7-9 day prepatent period, and administration of the test drug is initiated when the rising parasite count exceeds 5000 per mm^3 (typically day 10-12). Test drugs are administered orally (by nasogastric intubation) once daily for 7 consecutive days in aqueous solution or, if insoluble, in suspension in 0.3% methylcellulose solution. Chloroquine diphosphate (3.1 mg/kg base/kg orally per day) is always administered concurrently with the test drug for 7 days to eliminate blood schizonts. Thus any tissue schizonticidal activity of the test drug will always be apparent even if it lacks blood schizonticidal activity.
A vehicle control monkey and a positive drug control (primaquine) monkey are included in each group of inoculated monkeys.
The effect of the test drug is determined by counting blood parasites. Parasite counts are made daily through day 20, and every two days thereafter. Initially a clearance of blood parasites is observed due to the blood schizonticidal action of chloroquine. […] If there is no relapse within 20 days of the initial clearance of parasitemia, the monkey is splenectomized and its parasitemia followed for an additional 30 days. If there is no relapse within this period, the experiment is terminated and the monkey is considered "cured".
Primaquine diphosphate cures over 90% of monkeys in this test system when administered at a dose of 1.3 mg/kg of salt per day for 7 days ([…]) in combination with chloroquine.
The antimalarial activity data acquired by the two test procedures described above are listed in Tables 2 and 3 for the compounds of this invention. In Table 4, the most promising compound of the series, compound 1, is compared directly with primaquine together with some additional test data for compound 1 compared to primaquine. In all the work reported herein primaquine is used in the form of the diphosphate salt. The test data are expressed in the form of the number of cures at a given dose level. Extension of life (mean survival time) relative to the controls is noted in the Rane mouse test; if the mean survival time is extended seven or more days, the compound is considered to be active.
The Molar Primaquine Index is useful in the radical curative test (Table II) as a gauge of the efficacy of a candidate drug relative to primaquine.

## COc1cc(NC(C)CCCN)c2nccc(C)c2c1 (centres unmarked) [4-Methylprimaquine, 4-methylprimaquine]
[1]; 0.316 mg/kg, prior art comparison
  Radical curative activity: inactive
[1]; 1.0 mg/kg
  % cures (radical curative): 100%
[1]; prior art compounds
  Radical curative activity relative to primaquine: comparable to primaquine and essentially equivalent in efficacy
[2]; 160 mg/kg, 5 mice, Table I
  Δ MST: 9 days
[2]; 320 mg/kg, 5 mice, Table I
  Δ MST: 10 days
[2]; 640 mg/kg, 5 mice, Table I
  Cures: 3C
  Toxic deaths: 1T
[2]; curative only at the toxic dose
  Only curative (toxic) dose in suppressive test: 640 mg/kg
[2]; non-toxic dose levels, prior art comparison
  Suppressive activity: very weak activity

## COc1cc(NCCCC(C)N)c2nccc(C)c2c1Oc1cccc(C(F)(F)F)c1 (centres unmarked) [Compound 2, 8-((4-Amino-1-pentyl)amino)-6-methoxy-4-methyl-5-(3-trifluoromethylphenoxy)-quinoline Hemisuccinate]
[3]; 20 mg/kg × 1, s.c.
  Cures (60 days survival): 4C
[3]; 40 mg/kg × 1, s.c.
  Cures (60 days survival): 5C
[4]
  Molar Primaquine Index CD 100: 1.3

## COc1cc(NCCCCC(C)N)c2nccc(C)c2c1Oc1cccc(C(F)(F)F)c1 (centres unmarked) [Compound 3, 8-((5-Amino-1-hexyl)amino)-6-methoxy-4-methyl-5-(3-trifluoromethylphenoxy)quinoline Hemisuccinate Hydrate]
[3]; 5 mg/kg × 1, s.c.
  Extension of survival relative to controls: 13 days
  Suppressive activity (active/inactive): A (Active, 7 Days or more estension of survival relative to controls.)
[3]; 10 mg/kg × 1, s.c.
  Cures (60 days survival): 3C
[3]; 20 mg/kg × 1, s.c.
  Cures (60 days survival): 5C
[3]; 40 mg/kg × 1, s.c.
  Cures (60 days survival): 5C
[3]; 80 mg/kg × 1, s.c.
  Cures (60 days survival): 4C
[3]; 160 mg/kg × 1, s.c.
  Cures (60 days survival): 4C
[4]
  Molar Primaquine Index CD 100: 1.3

## CCC(CCCN)Nc1cc(OC)c(Oc2cccc(C(F)(F)F)c2)c2c(C)ccnc12.O=C(O)CCC(=O)O (centres unmarked) [Compound 4, 8-((4-Amino-1-ethylbutyl)amino)-6-methoxy-4-methyl-5-(3-trifluoromethylphenoxy)-quinoline Succinate]
[3]; 10 mg/kg × 1, s.c.
  Cures (60 days survival): 3C
[3]; 20 mg/kg × 1, s.c.
  Cures (60 days survival): 5C
[3]; 40 mg/kg × 1, s.c.
  Cures (60 days survival): 5C
[3]; 80 mg/kg × 1, s.c.
  Cures (60 days survival): 5C
[3]; 160 mg/kg × 1, s.c.
  Cures (60 days survival): 5C
[3]; 320 mg/kg × 1, s.c.
  Cures (60 days survival): 5C
[3]; 640 mg/kg × 1, s.c., Succinate
  Cures (60 days survival): 2C and 3C
[4]
  Molar Primaquine Index CD 100: 1.3

## COc1cc(NC(C)CCCNC(C)C)c2nccc(C)c2c1Oc1cccc(C(F)(F)F)c1.O=C(O)CCC(=O)O (centres unmarked) [Compound 5, 8-((4-Isopropylamino-1-methylbutyl)amino)-6-methoxy-4-methyl-5-(3-trifluoromethylphenoxy)quinoline Succinate]
[3]; 640 mg/kg × 1, s.c.
  Toxic: 4T
[3]; in words, Table 3
  Suppressive activity: totally ineffective
[4]
  Molar Primaquine Index CD 100: 1.3

## COc1ccc(Oc2c(OC)cc(NC(C)CCCN)c3nccc(C)c23)cc1.O=P(O)(O)O (centres unmarked) [Compound 6, 8-((4-Amino-1-methylbutyl)amino)-6-methoxy-5-(4-methoxyphenoxy)-4-methylquinoline Phosphate]
[3]; 10 mg/kg × 1, s.c.
  Extension of survival relative to controls: 7 days
  Suppressive activity (active/inactive): A (Active, 7 Days or more estension of survival relative to controls.)
[3]; 20 mg/kg × 1, s.c.
  Cures (60 days survival): 1C
[3]; 40 mg/kg × 1, s.c.
  Cures (60 days survival): 5C
[3]; 80 mg/kg × 1, s.c.
  Cures (60 days survival): 5C
[3]; 160 mg/kg × 1, s.c.
  Cures (60 days survival): 5C
[3]; 320 mg/kg × 1, s.c.
  Cures (60 days survival): 5C
[3]; 640 mg/kg × 1, s.c.
  Cures (60 days survival): 2C
  Toxic: 3T
[4]
  Radical curative activity relative to primaquine: markedly superior to primaquine
  Molar Primaquine Index CD 100: 4.6

## COc1cc(NC(C)CCCN)c2nccc(C)c2c1Oc1ccc(Cl)c(Cl)c1.O=P(O)(O)O (centres unmarked) [Compound 7, 8-((4-Amino-1-methylbutyl)amino)-5-(3,4-dichlorophenoxy)-6-methoxy-4-methylquinoline Phosphate]
[3]; 5 mg/kg × 1, s.c.
  Cures (60 days survival): 4C
[3]; 10 mg/kg × 1, s.c.
  Cures (60 days survival): 5C
[3]; 20 mg/kg × 1, s.c.
  Cures (60 days survival): 5C
[3]; 40 mg/kg × 1, s.c.
  Cures (60 days survival): 5C
[3]; 80 mg/kg × 1, s.c.
  Cures (60 days survival): 5C
[3]; 160 mg/kg × 1, s.c.
  Cures (60 days survival): 5C
[3]; 320 mg/kg × 1, s.c.
  Cures (60 days survival): 5C
[3]; 640 mg/kg × 1, s.c.
  Cures (60 days survival): 5C
[4]
  Molar Primaquine Index CD 100: 1.3

## COc1cc(NC(C)CCCN)c2nccc(C)c2c1Oc1ccc(Cl)cc1Cl (centres unmarked) [Compound 8, 8-((4-Amino-1-methylbutyl)amino))-5-(2,4-dichlorophenoxy)-6-methoxy-4-methylquinoline Phosphate]
[3]; 10 mg/kg × 1, s.c.
  Cures (60 days survival): 1C
[3]; 20 mg/kg × 1, s.c.
  Cures (60 days survival): 5C
[3]; 40 mg/kg × 1, s.c.
  Cures (60 days survival): 5C
[3]; 80 mg/kg × 1, s.c.
  Cures (60 days survival): 5C
[3]; 160 mg/kg × 1, s.c.
  Cures (60 days survival): 5C
[3]; 320 mg/kg × 1, s.c.
  Cures (60 days survival): 4C
  Toxic: 1T
[3]; 640 mg/kg × 1, s.c.
  Cures (60 days survival): 3C
  Toxic: 2T
[4]
  Molar Primaquine Index CD 100: 1.3

## COc1cc(NC(C)CCCN)c2nccc(C)c2c1Oc1ccc(F)cc1.O=P(O)(O)O (centres unmarked) [Compound 9, 8-((4-Amino-1-methylbutyl)amino)-5-(4-fluorophenoxy)-6-methoxy-4-methylquinoline Phosphate]
[3]; 5 mg/kg × 1, s.c.
  Extension of survival relative to controls: 7 days
  Suppressive activity (active/inactive): A (Active, 7 Days or more estension of survival relative to controls.)
[3]; 10 mg/kg × 1, s.c.
  Cures (60 days survival): 3C
[3]; 20 mg/kg × 1, s.c.
  Cures (60 days survival): 4C
[3]; 40 mg/kg × 1, s.c.
  Cures (60 days survival): 5C
[3]; 80 mg/kg × 1, s.c.
  Cures (60 days survival): 5C
[3]; 160 mg/kg × 1, s.c.
  Cures (60 days survival): 5C
[3]; 320 mg/kg × 1, s.c.
  Cures (60 days survival): 4C
  Toxic: 1T
[3]; 640 mg/kg × 1, s.c.
  Cures (60 days survival): 3C
  Toxic: 2T
[3]; Plasmodium berghei, sc, single dose, read-out: Curative dose, suppressive test
  minimal effective dose: 10 mg/kg
[3]; relative to compound 1
  Toxicity in suppressive test: somewhat more toxic
[4]
  Radical curative activity relative to primaquine: markedly superior to primaquine
  Molar Primaquine Index CD 100: 4.5

## OC(c1cc(C(F)(F)F)nc2c(C(F)(F)F)cccc12)C1CCCCN1 (centres unmarked) [mefloquine]
[2]; newer clinical suppressive drug
  Curative dose, Rane Test: 20 mg/kg

From patent US4431807A, “4-Methyl-5-(unsubstituted and substituted phenoxy)-6-methoxy-8-(aminoalkylamino)quinolines” (priority 1981, dated 1984)
